Each molecule was assayed against T1, Dihydroorotate dehydrogenase (quinone), mitochondrial (Homo sapiens, UniProt Q02127) (assay: Potency index, ratio of A771726 IC50 to compound IC50 for human DHODH).
T1 sequence (Q02127 whole entry): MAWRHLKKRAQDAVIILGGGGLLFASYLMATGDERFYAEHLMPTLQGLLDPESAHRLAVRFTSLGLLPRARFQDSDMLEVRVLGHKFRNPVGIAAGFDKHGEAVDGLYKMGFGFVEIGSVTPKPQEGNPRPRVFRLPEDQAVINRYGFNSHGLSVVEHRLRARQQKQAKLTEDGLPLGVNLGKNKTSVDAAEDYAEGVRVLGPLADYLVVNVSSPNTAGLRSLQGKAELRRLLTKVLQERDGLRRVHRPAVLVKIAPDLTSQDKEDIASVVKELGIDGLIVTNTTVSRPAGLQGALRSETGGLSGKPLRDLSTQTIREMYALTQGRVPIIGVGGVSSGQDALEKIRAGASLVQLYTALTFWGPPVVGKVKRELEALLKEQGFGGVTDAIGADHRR

| Ratio IC50 | Compound |
| --- | --- |
| 2 | COc1ccccc1NC(=O)c1cccc2nc(-c3cc(Br)nn3-c3ncccc3Cl)[nH]c12 |

These molecules were tested against T1, Dihydroorotate dehydrogenase (quinone), mitochondrial (assay: Inhibition of human DHODH assessed as decrease in DCIP at 10 uM using dihydroorotate as substrate measured every 30 seconds for 6 mins).

| Compound | inhibition [%] |
| --- | --- |
| COc1cccc(C)c1NC(=O)c1cccc2nc(-c3cc(Br)nn3-c3ncccc3Cl)[nH]c12 | 9.43 |
| C/C(O)=C(\C#N)C(=O)Nc1ccc(C(F)(F)F)cc1 | 64 |
| COc1cccc(F)c1NC(=O)c1cccc2nc(-c3cc(Br)nn3-c3ncccc3Cl)[nH]c12 | 15.7 |
| COc1ccc(NC(=O)c2cccc3nc(-c4cc(Br)nn4-c4ncccc4Cl)[nH]c23)c(OC)c1 | 1.3 |
| CCCNC(=O)c1cccc2nc(-c3cc(Br)nn3-c3ncccc3Cl)oc12 | 26.6 |
| COc1cccc(OC)c1NC(=O)c1cccc2nc(-c3cc(Br)nn3-c3ncccc3Cl)[nH]c12 | 0 |
| Cc1ccc(NC(=O)c2cccc3nc(-c4cc(Br)nn4-c4ncccc4Cl)[nH]c23)c(C)c1 | 48.8 |
| COc1ccc(C(F)(F)F)cc1NC(=O)c1cccc2nc(-c3cc(Br)nn3-c3ncccc3Cl)[nH]c12 | 55.2 |
| O=C(Nc1ccc(C(F)(F)F)cc1)c1cccc2nc(-c3cc(Br)nn3-c3ncccc3Cl)[nH]c12 | 36.3 |
| O=C(Nc1ccc(F)cc1F)c1cccc2nc(-c3cc(Br)nn3-c3ncccc3Cl)[nH]c12 | 26.9 |
| O=C(Nc1ccc(F)c(F)c1F)c1cccc2nc(-c3cc(Br)nn3-c3ncccc3Cl)[nH]c12 | 31.9 |
| COc1ccc(NC(=O)c2cccc3nc(-c4cc(Br)nn4-c4ncccc4Cl)[nH]c23)cc1 | 36.1 |
| CCCNC(=O)c1cccc2oc(-c3cc(Br)nn3-c3ncccc3Cl)nc12 | 30.1 |

Results, then the molecule that gave them:

| inhibition [%] | Compound |
| --- | --- |
| 23.4 | CCCNC(=O)c1cccc2nc(-c3cc(Br)nn3-c3ncccc3Cl)[nH]c12 |
| 34.9 | O=C(NCc1ccccc1)c1cccc2nc(-c3cc(Br)nn3-c3ncccc3Cl)[nH]c12 |
| 38.8 | O=C(Nc1ccccc1F)c1cccc2nc(-c3cc(Br)nn3-c3ncccc3Cl)[nH]c12 |
| 27.6 | O=C(NCc1ccccn1)c1cccc2nc(-c3cc(Br)nn3-c3ncccc3Cl)[nH]c12 |
| 22.7 | Cc1ccc(CNC(=O)c2cccc3nc(-c4cc(Br)nn4-c4ncccc4Cl)[nH]c23)cc1 |
| 49.4 | O=C(Nc1ccccc1)c1cccc2nc(-c3cc(Br)nn3-c3ncccc3Cl)[nH]c12 |
| 24.9 | CCNC(=O)c1cccc2nc(-c3cc(Br)nn3-c3ncccc3Cl)[nH]c12 |
| 44 | O=C(NCc1ccc(Cl)cc1)c1cccc2nc(-c3cc(Br)nn3-c3ncccc3Cl)[nH]c12 |
| 60.5 | COc1ccccc1NC(=O)c1cccc2nc(-c3cc(Br)nn3-c3ncccc3Cl)[nH]c12 |
| 24.8 | O=C(Nc1ccccc1I)c1cccc2nc(-c3cc(Br)nn3-c3ncccc3Cl)[nH]c12 |
| 32 | O=C(NCc1ccc(C(F)(F)F)cc1)c1cccc2nc(-c3cc(Br)nn3-c3ncccc3Cl)[nH]c12 |
| 27.6 | O=C(Nc1ccccc1Br)c1cccc2nc(-c3cc(Br)nn3-c3ncccc3Cl)[nH]c12 |
| 18.9 | Cc1cccc(NC(=O)c2cccc3nc(-c4cc(Br)nn4-c4ncccc4Cl)[nH]c23)c1 |
| 73.9 | Cc1ccccc1NC(=O)c1cccc2nc(-c3cc(Br)nn3-c3ncccc3Cl)[nH]c12 |
| 43 | O=C(NCc1c(F)ccc(F)c1F)c1cccc2nc(-c3cc(Br)nn3-c3ncccc3Cl)[nH]c12 |
| 14.1 | CNC(=O)c1cccc2nc(-c3cc(Br)nn3-c3ncccc3Cl)[nH]c12 |

These molecules were tested against T1, Dihydroorotate dehydrogenase (quinone), mitochondrial (assay: Inhibition of human DHODH assessed as decrease in DCIP using dihydroorotate as substrate measured every 30 seconds for 6 mins).

| IC50 [µM] | Compound |
| --- | --- |
| 4.85 | COc1ccc(C(F)(F)F)cc1NC(=O)c1cccc2nc(-c3cc(Br)nn3-c3ncccc3Cl)[nH]c12 |
| 0.178 | COc1ccccc1NC(=O)c1cccc2nc(-c3cc(Br)nn3-c3ncccc3Cl)[nH]c12 |
| 0.676 | Cc1ccccc1NC(=O)c1cccc2nc(-c3cc(Br)nn3-c3ncccc3Cl)[nH]c12 |

— ChEMBL document CHEMBL3808318, “Design, synthesis and inhibitory activity against human dihydroorotate dehydrogenase (hDHODH) of 1,3-benzoazole derivatives bearing amide units” (Bioorg Med Chem Lett, 2016)
